Experimental data taken from US20230028441A1, “NOVEL HETEROARYL-TRIAZOLE COMPOUNDS AS PESTICIDES” (Bayer Aktiengesellschaft, priority 2019, published 2023).

What was measured:
Assay type in all cases: in vivo
[1] = test system: green peach aphid (Myzus persicae); assay: Myzus persicae oral test; settings: 120 h
Protocol: Solvent: 100 parts by weight acetone
To produce a suitable preparation of active compound, 1 part by weight of active compound is mixed with the stated amount of solvent, and the concentrate is diluted with water to the desired concentration.
50 μL compound solution is filled in microtiter plates and 150 μL IPL41 insect medium (33%+15% sugar) is added to obtain a total volume of 200 μL per well. Afterwards the plates are sealed with parafilm through which a mixed population of the green peach aphid (Myzus persicae) can suck on the compound preparation.
After 5 days mortality in % is determined. 100% means all aphids have been killed and 0% means none of the aphids have been killed.

[2] = test system: adult engorged female ticks (Rhipicephalus microplus); assay: Rhipicephalus (Boophilus) microplus injection test; settings: 168 h, egg deposition after 7 days, read-out: efficacy (infertile eggs); for pest or weed control at 0.004 mg: 4 μg/animal; for pest or weed control at 0.02 mg: 20 μg/animal
How it was run: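 Compound was dissolved in DMSO at 10 mg per 0.5 mL and diluted with DMSO to the test concentration. Five engorged adult females received a 1 μL abdominal injection and were kept in a climate chamber. After 7 days, fertile egg deposition was scored, with unclear eggs held until hatching at about 42 days; 100% efficacy means all eggs were infertile.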

[3] = test system: larvae of the southern green stink bug (Nezara viridula); assay: Nezara viridula spray test; settings: in Hordeum vulgare, 96 h
Protocol: (§1) Solvent: 78.0 parts by weight of acetone • • 1.5 parts by weight of dimethylformamide
(§2) Emulsifier: alkylarylpolyglycol ether
(§3) To produce a suitable preparation of active compound, 1 part by weight of active compound is mixed with the stated amount of solvent, and the concentrate is diluted with water, containing an emulsifier concentration of 1000 ppm, to the desired concentration. Further test concentrations are prepared by dilution with emulsifier containing water.
Barley plants (Hordeum vulgare) infested with larvae of the southern green stink bug (Nezara viridula) are sprayed with a test solution containing the desired concentration of the active ingredient.
After 4 days mortality in % is determined. 100% means all the stink bugs have been killed; 0% means none of the stink bugs have been killed.

[4] = test system: adult unfed cat fleas (Ctenocephalides felis); assay: Ctenocephalides felis oral test; settings: 48 h, 100 ppm in cattle blood, after 2 days
Protocol: Solvent: dimethyl sulfoxide
To produce a suitable preparation of active compound, 10 mg of active compound are dissolved in 0.5 mL solvent, and the concentrate is diluted with cattle blood to the desired concentration.
Approximately 20 adult unfed cat fleas (Ctenocephalides felis) are placed in flea chambers. The blood chamber, sealed with parafilm on the bottom, are filled with cattle blood supplied with compound solution and placed on the gauze covered top of the flea chamber, so that the fleas are able to suck the blood. The blood chamber is heated to 37° C. whereas the flea chamber is kept at room temperature.
After 2 days mortality in % is determined. 100% means all the fleas have been killed; 0% means none of the fleas have been killed.

[5] = test system: larvae of the banded cucumber beetle (Diabrotica balteata); assay: Diabrotica balteata spray test; settings: 168 h, 100 g/ha (=32 μg/well), after 7 days, wheat seeds, read-out: efficacy (seedlings grown up)
How it was run: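 Germinated wheat seedlings (5 per well, agar plates) sprayed with compound in acetone/DMF diluted in water with 1000 ppm emulsifier, then infested with 10-20 larvae per unit. Efficacy scored after 7 days as % seedling growth relative to untreated, uninfested control (100% = normal growth, 0% = none).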

[6] = test system: fall armyworm larvae (Spodoptera frugiperda); assay: Spodoptera frugiperda spray test (maize leaf sections); settings: 168 h
How it was run: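 Maize leaf sections were sprayed with compound formulated in acetone/DMF and diluted in water containing 1000 ppm emulsifier. Once dry, sections were infested with fall armyworm larvae. Mortality (%) was scored after 7 days.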

[7] = test system: cattle tick larvae (Rhipicephalus microplus), strain Parkhurst, resistant against synthetic pyrethroids; assay: Rhipicephalus (Boophilus) microplus in-vitro contact test, larval cattle tick; settings: 5 μg/cm^2 (=500 g/ha), after 48 hours, read-out: efficacy (larvae dead or moribund)
How it was run: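 Acetone solutions of compound were coated on glass tube walls (900 ppm giving 5 μg/cm^2) and dried. 20–50 pyrethroid-resistant Parkhurst larvae were held per tube at 27° C and 85% relative humidity; after 48 h negative geotaxis scored efficacy as percent larvae dead or moribund.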

[8] = test system: adult brown dog ticks (Rhipicephalus sanguineus); assay: Rhipicephalus sanguineus in-vitro contact test with adult brown dog ticks; settings: after 48 hours, read-out: efficacy (ticks dead or moribund)
Protocol: 9 mg compound is solved in 1 mL acetone and diluted with acetone to the desired concentration. 250 μL of the test solution is filled in 25 mL glass test tubes and homogeneously distributed on the inner walls by rotation and tilting on a shaking device (2 h at 30 rpm). With a compound concentration of 900 ppm, an inner surface of 44.7 cm^2 and a homogeneous distribution, a dose of 5 μg/cm^2 is achieved.
After the solvent has evaporated, each test tube is filled with 5-10 adult brown dog ticks (Rhipicephalus sanguineus), closed with a perforated lid and incubated in a lying position at room temperature and relative humidity. After 48 hours efficacy is determined. The ticks are patted on the ground of the tubes and are incubated on a heating plate at 45-50° C. for at most 5 minutes. Immotile or uncoordinated moving ticks, which are not able to escape the heat by climbing upwards, are marked as dead or moribund.
An efficacy of 100% means all ticks are dead or moribund; 0% means no ticks are dead or moribund.

[9] = test system: brown planthopper (Nilaparvata lugens); assay: Nilaparvata lugens spray test; settings: in Oryza sativa, 96 h
Protocol: as §1, §2
as §3, with “solvents” for “solvent,”, “and” for “and the concentrate”
Rice plants (Oryza sativa) are sprayed with a preparation of the active ingredient of the desired concentration and the plants are infested with the brown planthopper (Nilaparvata lugens).
After 4 days mortality in % is determined. 100% means all planthoppers have been killed and 0% means none of the planthoppers have been killed.

Row | SMILES | mortality at 4 ppm [1] | pest or weed control at 0.004 mg [2] | pest or weed control at 0.02 mg [2] | mortality at 100 ppm [4] | pest or weed control at 32 µg/disc, 100 g/ha [5] | mortality at 100 g/ha [6] | other results
1 | CC(NC(=O)c1cc(Cl)cc(S(C)(=O)=O)c1)c1nc(NS(C)(=O)=O)nn1-c1ccc(Cl)cn1 (racemic) [I-025, 3-chloro-N-[1-[2-(5-chloro-2-pyridyl)-5-(methanesulfonamido)-1,2,4-triazol-3-yl]ethyl]-5-methylsulfonyl-benzamide] | 90% |  |  |  |  |  | 
2 | CC(NC(=O)c1cc(Cl)cc(S(C)(=O)=O)c1)c1nc(S(C)(=O)=O)nn1-c1ccc(Cl)cn1 (racemic) [I-060, 3-chloro-N-[1-[2-(5-chloro-2-pyridyl)-5-methylsulfonyl-1,2,4-triazol-3-yl]ethyl]-5-methylsulfonyl-benzamide] | 100% | 100% | 100% |  |  |  | mortality at 100 g/ha [3]: 100%; mortality at 500 g/ha [3]: 100%
3 | CC(NC(=O)c1cc(Cl)cc(C(F)(F)F)c1)c1nc(C(N)=O)nn1-c1ncccn1 (single isomer, unassigned) [I-074, 5-[1-[[3-chloro-5-(trifluoromethyl)benzoyl]amino]ethyl]-1-pyrimidin-2-yl-1,2,4-triazole-3-carboxamide] | 100% | 100% |  | 100% |  |  | mortality at 100 g/ha [3]: 100%
4 | CC(NC(=O)c1cc(Cl)cc(C(F)(F)F)c1)c1nc(C#N)nn1-c1ncccn1 (single isomer, unassigned) [I-080, 3-chloro-N-[1-(5-cyano-2-pyrimidin-2-yl-1,2,4-triazol-3-yl)ethyl]-5-(trifluoromethyl)benzamide] | 90% | 100% |  | 100% | 100% |  | 
5 | CC(NC(=O)c1cc(Cl)cc(S(C)(=O)=O)c1)c1nc(N)nn1-c1ccc(Cl)cn1 (stereo not shown) [I-005] | 90% | 100% | 100% | 100% |  |  | 
6 | CC(=O)Nc1nc(C(C)NC(=O)c2cc(Cl)cc(S(C)(=O)=O)c2)n(-c2ccc(Cl)cn2)n1 (stereo not shown) [I-017] | 100% | 100% | 100% | 100% |  |  | mortality at 500 g/ha [6]: 100%; mortality at 100 g/ha [3]: 90%; mortality at 500 g/ha [3]: 100%
7 | CC(Cl)C(=O)Nc1nc(C(C)NC(=O)c2cc(Cl)cc(S(C)(=O)=O)c2)n(-c2ncccn2)n1 (stereo not shown) [I-019] | 90% | 100% |  | 100% |  |  | mortality at 100 g/ha [3]: 90%
8 | CC(NC(=O)c1cc(Cl)cc(S(C)(=O)=O)c1)c1nc(NC(=O)C2(Cl)CC2)nn1-c1ncccn1 (stereo not shown) [I-020] | 90% | 100% |  | 100% |  |  | 
9 | CC(NC(=O)c1cc(Cl)cc(C(F)(F)F)c1)c1nc(NC(=O)C2CC2)nn1-c1ncccn1 (stereo not shown) [I-023] | 100% |  |  |  | 100% | 100% | mortality at 100 g/ha [3]: 90%
10 | CC(NC(=O)c1cc(Cl)cc(C(F)(F)F)c1)c1nc(NC(=O)[C@@H]2C[C@@H]2F)nn1-c1ncccn1 (stereo partly shown) [I-024] | 100% |  |  |  | 100% | 100% | 
11 | CC(NC(=O)c1cc(Cl)cc(S(C)(=O)=O)c1)c1nc(CS(C)(=O)=O)nn1-c1ccc(Cl)cn1 (stereo not shown) [I-027, 3-chloro-N-[1-[2-(5-chloro-2-pyridyl)-5-(methylsulfonylmethyl)-1,2,4-triazol-3-yl]ethyl]-5-methylsulfonyl-benzamide] | 100% | 80% | 100% | 100% |  |  | pest or weed control at 5 µg/cm2 [7]: 90%; mortality at 100 g/ha [3]: 100%; mortality at 500 g/ha [3]: 100%
12 | CC(NC(=O)c1cc(Cl)cc(S(C)(=O)=O)c1)c1nc(-c2cnccn2)nn1-c1ncccn1 (stereo not shown) [I-045] | 90% | 100% | 100% | 100% |  |  | pest or weed control at 5 µg/cm2, 500 g/ha ([8]; 5 μg/cm^2 (=500 g/ha)): 80%
13 | CC(NC(=O)c1cncc(C(F)(F)F)c1)c1nc(-c2ncccn2)nn1-c1ncccn1 (stereo not shown) [I-053] | 90% |  |  | 100% |  |  | 
14 | CC(NC(=O)c1cc(Cl)cc(S(C)(=O)=O)c1)c1nc(-c2ccco2)nn1-c1ncccn1 (stereo not shown) [I-057] | 100% | 80% | 100% | 100% |  |  | 
15 | CNC(=O)c1nc(C(C)NC(=O)c2cc(Cl)cc(C(F)(F)F)c2)n(-c2ccc(C#N)cn2)n1 (stereo not shown) [I-079] | 100% | 100% | 100% | 100% |  | 100% | pest or weed control at 5 µg/cm2 [7]: 100%
16 | CC(NC(=O)c1cc(Br)cc(C(F)(F)F)c1)c1nc(N)nn1-c1ncccn1 (stereo not shown) [I-093] | 100% | 100% |  | 90% |  | 83% | pest or weed control at 1 µg/cm2, 100 g/ha ([8]; 1 μg/cm^2 (=100 g/ha)): 80%; pest or weed control at 5 µg/cm2 [7]: 100%
17 | CC(NC(=O)c1cc(Br)cc(Br)c1)c1nc(N)nn1-c1ncccn1 (stereo not shown) [I-094] | 100% |  |  |  |  | 100% | 
18 | CC(NC(=O)c1cc(Cl)cc(Br)c1)c1nc(N)nn1-c1ncccn1 (stereo not shown) [I-108] | 100% |  |  |  | 100% | 100% | pest or weed control at 5 µg/cm2 [7]: 90%
19 | CC(NC(=O)c1cc(Cl)cc(S(C)(=O)=O)c1)c1nc(N2CCOCC2)nn1-c1ccc(C#N)cn1 (stereo not shown) [I-160] |  |  |  |  |  |  | mortality at 500 g/ha [9]: 100%
20 | C[C@H](NC(=O)c1cc(OC(F)(F)F)cc(C2CC2)c1)c1nc(N2CCOCC2)nn1-c1ccc(C#N)cn1 [I-174] |  |  |  |  | 100% |  | mortality at 500 g/ha [9]: 100%
21 | C[C@H](NC(=O)c1cc(C(F)(F)F)cc(C(F)(F)F)c1)c1nc(N2CCOCC2)nn1-c1ccc(C#N)cn1 [I-175] |  |  |  |  | 100% | 100% | mortality at 500 g/ha [9]: 100%
22 | CNc1nc([C@H](C)NC(=O)c2cc(OC(F)(F)F)cc(S(=O)(=O)C(C)C)c2)n(-c2ncccn2)n1 [I-181] |  |  |  |  |  |  | mortality at 500 g/ha [9]: 100%
23 | CNc1nc([C@H](C)NC(=O)c2cc(OC(F)(F)F)cc(S(=O)(=O)c3ccc(Cl)cc3)c2)n(-c2ncccn2)n1 [I-182] |  |  |  |  | 100% | 100% | mortality at 500 g/ha [9]: 100%
